In US7968587B2, “Tetrahydrocyclopenta[b]indole compounds as androgen receptor modulators” (priority 2006, dated 2011):

Tested on: castrated (GDX) male Wistar rats
Assay: In vivo model of efficacy and selectivity (castrated rat; LA, SV wet weight, PALP activity)
Details: po, two weeks; for LA weight % Efficacy versus control (GDX) (ANOVA, p < 0.05): levator ani wet weight normalized to body weight; for PALP % Efficacy versus control (GDX) (ANOVA, p < 0.05): periosteal alkaline phosphatase activity, tibia; for SV weight % Efficacy verses control (sham) (ANOVA, p < 0.05): seminal vesicle wet weight normalized to body weight
Procedure: Male Wistar rats (12 weeks old) are castrated (gonadectomized or “GDX”) according to approved procedures (Charles River Labs) and allowed to waste for eight - 10 weeks. Age-matched sham-operated mice are also prepared. (Sham-operated mice are animals that have been exposed to the same surgical procedures as castrated animals except their testes are not removed.) Animals are housed in a temperature-controlled room (24° C.) with a reversed 12 hour light/dark cycle (dark 10:00/22:00) and water and food are available ad libitum.
Test compounds are administered to the animals using conventional vehicles. For example, 1% sodium carboxymethylcellulose (CMC)+0.25% Tween 80 in sterile H2O can be used for oral administration and 6% ethyl-alcohol (EtOH)+94% cyclodexitrane (CDX) can be used for subcutaneous injections. Sham operated rats treated with vehicle alone are used as a treatment positive controls whereas castrated rats treated only with vehicle are used as treatment negative control.
Test animals are dosed over a two week timeframe, orally or subcutaneously, with, for example, 0.3, 1, 3, 10 or 30 mg/kg/day of a compound of the present invention. After the two-week treatment, as an indicator of activity, the wet weight of the Levator Ani (LA) muscle in the test group is determined and compared to the wet weight of the Levator Ani from the castrated, vehicle-only control group. The wet weights of the muscle obtained in both the test group and the vehicle-only group are normalized relative to total body weight. As an indicator of tissue selective activity, the wet weight of the seminal vesicle (SV) from test animals is similarly compared to the wet weight of the seminal vesicles from the sham, vehicle-only group. Again, the wet weights of the vesicles obtained from both the test group and the vehicle-only group are normalized relative to total body weight.
In addition to the Levator Ani wet weight, the left tibia of rats are isolated during necropsy and after uncapping of the epiphysis, the soft tissue surrounding the bone is carefully removed. This sample is then placed in a solution containing 0.2% collagenase in Tris Buffer (pH 7.5). The resulting enzymatic excision of the outer periosteal layer is subjected immediately to an assay to determine alkaline phosphatase activity, an indicator of osteoblast/bone anabolic activity. Briefly, 30 μL of sample is placed in an epitube containing 200 μL of para-nitrophenyl phosphate (PNPP) substrate buffer (Pierce Cat # 37621). Purified alkaline phosphatase (Sigma Cat. # P4252) is used to make a standard curve, and the samples are read in a plate reader at Abs405 to determine periosteal alkaline phosphatase (PALP) activity. The results obtained from both the test group and the vehicle only group may be normalized relative to total body weight.
Percent Efficacy (% Eff.) values may be determined as follows: % Eff.=((Wet weight of LA or SV or PALP activity in test animal/test animal total body weight)/(Wet weight of LA or SV or PALP activity in control animal/control animal total body weight))×100.

CN(C)S(=O)(=O)N[C@@H]1Cc2c(n(Cc3cccc(F)n3)c3ccc(C#N)cc23)C1 [Example 74, (R)-N′-[7-Cyano-4-(6-fluoro-pyridin-2-ylmethyl)-1,2,3,4-tetrahydro-cyclopenta[b]indol-2-yl]-N,N-dimethylsulfamide]
LA weight % Efficacy versus control (GDX) (ANOVA, p < 0.05) (3 mg/Kg/d): 134% | PALP % Efficacy versus control (GDX) (ANOVA, p < 0.05) (3 mg/Kg/d): 95% | SV weight % Efficacy verses control (sham) (ANOVA, p < 0.05) (3 mg/Kg/d): 6% | LA weight % Efficacy versus control (GDX) (ANOVA, p < 0.05) (10 mg/Kg/d): 195% | PALP % Efficacy versus control (GDX) (ANOVA, p < 0.05) (10 mg/Kg/d): 116% | SV weight % Efficacy verses control (sham) (ANOVA, p < 0.05) (10 mg/Kg/d): 8% | LA weight % Efficacy versus control (GDX) (ANOVA, p < 0.05) (30 mg/Kg/d): 186% | PALP % Efficacy versus control (GDX) (ANOVA, p < 0.05) (30 mg/Kg/d): 107% | SV weight % Efficacy verses control (sham) (ANOVA, p < 0.05) (30 mg/Kg/d): 14%
